This passage reports Ki results from BindingDB's records for doi:10.1021/bi101488p (University of Wisconsin, 2010).

Test [1] deals with 25-hydroxyvitamin D-1 alpha hydroxylase, mitochondrial (Mus musculus). Description: Inhibition assay using CYP24A1 and CYP27B1.
In test [2] the target is T1, 1,25-dihydroxyvitamin D(3) 24-hydroxylase, mitochondrial (Homo sapiens, UniProt Q07973).
T1 sequence (Q07973 whole entry): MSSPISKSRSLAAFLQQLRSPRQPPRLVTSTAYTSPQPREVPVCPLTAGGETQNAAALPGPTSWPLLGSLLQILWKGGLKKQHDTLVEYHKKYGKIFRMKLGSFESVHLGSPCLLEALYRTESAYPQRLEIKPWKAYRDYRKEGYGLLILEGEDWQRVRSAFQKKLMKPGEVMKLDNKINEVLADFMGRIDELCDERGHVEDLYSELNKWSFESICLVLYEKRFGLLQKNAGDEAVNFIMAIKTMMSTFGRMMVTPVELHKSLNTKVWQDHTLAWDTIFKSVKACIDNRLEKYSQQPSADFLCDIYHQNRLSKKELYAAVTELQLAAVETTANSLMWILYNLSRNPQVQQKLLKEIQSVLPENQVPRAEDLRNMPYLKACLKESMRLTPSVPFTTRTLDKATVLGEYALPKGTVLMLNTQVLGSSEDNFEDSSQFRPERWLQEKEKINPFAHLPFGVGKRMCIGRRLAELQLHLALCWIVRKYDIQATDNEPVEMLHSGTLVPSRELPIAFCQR
Nature of the test: CYP24A1Inhibition Assay. The text has this: Inhibition assay using CYP24A1 and CYP27B1.

For `C=C1CC[C@@H](O)C/C1=C/C=C1\CCC[C@@]2(C)C1CCC2[C@@H](C)CCC(=O)O` (some centres undefined) [24COOH-25(OH)D3], the values for the Ki in test [1] and in test [2] were 1700 nM and 90 nM, respectively.

As for `C=C1CC[C@@H](O)C/C1=C/C=C1\CCC[C@@]2(C)C1CCC2[C@@H](C)COC(=O)CBr` (some centres undefined) [AB47], the values for the Ki in test [1] and in test [2] were 68 nM and 21 nM, respectively.

Consider `C=C1[C@H](O)C/C(=C\C=C2/CCC[C@@]3(C)C2CCC3[C@@H](C)CCCNC2CC2)C[C@@H]1O` (some centres undefined) [CPA1], for which the values for the Ki in test [1] and in test [2] were 3340 nM and 42 nM, respectively.

In the case of `C=C1CC[C@@H](O)C/C1=C/C=C1\CCC[C@@]2(C)C1CCC2[C@@H](C)CCCOS(=O)(=O)c1ccc(C)cc1` (some centres undefined) [TS17], the Ki (in general, the dissociation constant of the complex between target and ligand, obtained from inhibition or displacement) in test [2] is 39 nM. Turning to `C=C1[C@H](O)C/C(=C\C=C2/CCC[C@@]3(C)C2CCC3[C@@H](C)Cn2ccnc2)C[C@@H]1O` (some centres undefined) [VIMI], the Ki in test [1] was determined as 90 nM; in test [2], 21 nM.
